Source: a compilation of properties of binary mixtures (doi:10.1007/s10973-023-12194-1)

Test: xn = mol fraction of the nth substance listed
Conditions: 101.3 kPa

CCCC[NH3+].O=[N+]([O-])[O-] + O
x2 = 0.435
Conditions	viscosity [mPa·s]
283.15 K	43.41
288.15 K	35.87
293.15 K	29.92
303.15 K	21.45
308.15 K	18.52
313.15 K	16.04
318.15 K	14.65
323.15 K	12.38
328.15 K	11.26
333.15 K	9.535
338.15 K	8.605
343.15 K	7.11
348.15 K	6.46
353.15 K	5.89
358.15 K	5.4
363.15 K	4.98
368.15 K	4.6
373.15 K	4.266

CC[NH3+].O=[N+]([O-])[O-] + O
x2 = 0.574
Conditions	viscosity [mPa·s]
283.15 K	8.965
288.15 K	6.679
293.15 K	6.018
298.15 K	5.487
313.15 K	4.258
318.15 K	3.893
323.15 K	3.622
333.15 K	3.173
338.15 K	3.007
348.15 K	1.807
353.15 K	1.695
358.15 K	1.589
363.15 K	1.492
368.15 K	1.434
373.15 K	1.343
